Experimental data taken from US6972319B1, “Pituitary adenylate cyclase activating peptide (PACAP)receptor 3 (R3) agonists and their pharmacological methods of use” (priority 1999, dated 2005).
No end group written: not given here.

Assays:
[1] = Airway hyperresponsiveness in the primate acute asthma model; type: in vivo, cynomolgus monkeys (Macaca fascicularls); details: for Delta log10 PC100, Mean, Treated: aerosol 10 minutes before Ascaris suum antigen challenge, +24 hr minus baseline, R3P0 0.6, R3P76 3.0, R3P82 1.8 ug/kg; for % Inhibition of induced AHR: treated vs control, R3P0 0.6, R3P76 3.0, R3P82 1.8 ug/kg by inhalation
Method: Male cynomolgus monkeys (Macaca fascicularls) used in this study were maintained at constant temperature and humidity with a twelve hour light cycle. They were fed twice daily, except on an experimental day when food was withheld the night before the procedure. Water was available ad lib at all times.
Airway hyperresponsiveness (AHR)(baseline) was measured 1 week before the control (no treatment) antigen challenge, and again 24 hrs after antigen challenge. Antigen-induced airway hyperresponsiveness was measured by a fall in the PC100 (the concentration of methacholine required to cause a 100% increase in lung resistance) at 24 hr compared to baseline. After 2 weeks rest, another baseline measurement of AHR was performed. One week later, peptides of this invention were administered as an aerosol, 10 minutes before antigen challenge. After 24 hrs, AHR was again measured, and the fall in PC100 with treatment was compared to that without treatment.
Experimental Procedure. On each experimental day animals were anaesthetized with a ketamine/xylazine mixture (70:12 mg kg^−1 @ 0.1 ml kg^−1) while still in their cage. When unconscious they were brought into the primate laboratory where they were placed in a supine position on a heated water blanket on a trolley. Ophthalmic ointment was wiped onto each eye, and 0.2 ml lidocaine (2%,) sprayed onto the larynx and over the back of the throat. The Jaws were held apart by a jaw spreader and a cuffed 5.0 gauge endotracheal tube (with the end liberally smeared with xylocaine gel, 2%) was inserted with the aid of laryngoscope. The animal was then placed into a specially designed restraint chair such that the animal was in a slightly reclined but upright sitting position, secured only by a collar at the neck. A water-heated blanket surrounded the animal.
The endotracheal tube was connected to a Harvard Ventilator adjusted to deliver 30-35 breaths per minute. Airflow was measured by a Fleisch pneumotachograph and thoracic pressure was measured by a validyne pressure transducer (as the difference between the pressure at the distal end of the et tube and room pressure).
The pneumotachograph and validyne were connected to a pre-amplifier and then into an MI^2 respiratory analyser. […]
Antigen challenge: This was an inhalation challenge with Ascaris suum. […] 30 breaths of antigen were administered after which the acute bronchoconstriction was monitored for 15 min. […]
Methacholine challenge: Methacholine dose response curves were carried out to assess the airway hyperresponsiveness. In the acute model, this was measured at +24 hour and compared to the responsiveness 7 days before treatment. […] The aerosol was administered for 15 breaths and then lung resistance was monitored for ten minutes. […]

PACAP-R3 [2] = biological target: T1, PACAP-R3 (Homo sapiens, UniProt P41587); assay: Cyclic AMP SPA on CHO cells expressing PACAP R3; type: cell-based; set-up: expressed in transfected cells; host or cells: CHO cells (Geneticin selection)
T1 sequence (P41587 24-438): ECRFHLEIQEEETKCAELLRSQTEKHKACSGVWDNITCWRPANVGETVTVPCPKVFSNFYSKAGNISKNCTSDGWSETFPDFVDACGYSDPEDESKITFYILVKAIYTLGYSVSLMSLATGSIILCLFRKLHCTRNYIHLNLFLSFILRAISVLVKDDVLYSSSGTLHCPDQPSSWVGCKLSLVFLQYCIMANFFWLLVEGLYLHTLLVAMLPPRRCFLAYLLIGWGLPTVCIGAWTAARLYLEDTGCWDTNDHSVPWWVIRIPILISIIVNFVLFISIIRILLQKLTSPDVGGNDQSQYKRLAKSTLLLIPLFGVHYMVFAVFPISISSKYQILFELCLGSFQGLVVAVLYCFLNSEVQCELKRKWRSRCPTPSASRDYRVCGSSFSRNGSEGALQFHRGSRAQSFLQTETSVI
How it was run: (§1)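 Potency reflects cyclic AMP accumulation, determined by SPA, after a 15 min, 37 C peptide exposure of CHO cells carrying the human receptor. Values are expressed relative to the maximal PACAP27 effect, with EC50 taken at its 50% level.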

PACAP-R2 = biological target: T2, PACAP-R2 (Homo sapiens, UniProt P32241); assay: Cyclic AMP SPA on CHO cells transfected with PACAP-R2; type: cell-based; details: cAMP SPA, concentration at which 50% of maximum PACAP27 activity is achieved, NA = no detectable activities, read-out: R2 EC50
T2 construct: expressed in transfected cells; host or cells: CHO cells
T2 sequence (P32241 31-457): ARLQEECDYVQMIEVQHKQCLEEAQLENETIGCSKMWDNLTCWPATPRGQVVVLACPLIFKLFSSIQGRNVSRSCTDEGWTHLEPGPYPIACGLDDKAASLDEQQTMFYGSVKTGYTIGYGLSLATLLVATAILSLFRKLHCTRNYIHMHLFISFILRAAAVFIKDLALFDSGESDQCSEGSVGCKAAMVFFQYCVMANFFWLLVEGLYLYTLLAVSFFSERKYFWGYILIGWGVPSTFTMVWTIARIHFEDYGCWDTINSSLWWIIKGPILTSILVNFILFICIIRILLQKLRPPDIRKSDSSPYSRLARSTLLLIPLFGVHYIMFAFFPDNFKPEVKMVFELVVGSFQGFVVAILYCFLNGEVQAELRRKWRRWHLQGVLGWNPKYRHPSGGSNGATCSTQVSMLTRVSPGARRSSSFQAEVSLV
How it was run: as §1

PACAP-R3 [3] = biological target: T1, PACAP-R3; details: literature (Gourlet et al., Xia et al.); b170: over R1 and R2; cited from earlier work

Compound | Delta log10 PC100, Mean, Treated [1] | % Inhibition of induced AHR [1] [%] | EC50 (PACAP-R3 [2]; cAMP SPA, CHO cells transfected with PACAP-R3, concentration at which 50% of maximum PACAP27 activity is achieved, NA = no detectable activities, read-out: R3 EC50) [nM] | R3 Selectivity (PACAP-R3 [2]; ratio of EC50 at R2 versus EC50 at R3) | EC50 (PACAP-R2) [nM] | PACAP-R3 selectivity (PACAP-R3 [3]) [fold]
HSDAVFTDNYTRLRKQVAVKKYLQSIKNKRY [Peptide R3P82] | −0.067 | 88 | 0.4 | 23 | 10 | 
CC[C@H](C)[C@H](NC(=O)[C@@H](NC(=O)[C@H](CC(N)=O)NC(=O)[C@H](CC(C)C)NC(=O)[C@H](Cc1ccc(O)cc1)NC(=O)[C@H](Cc1c[nH]cn1)NC(=O)[C@H](CCCCN)NC(=O)[C@H](C)NC(=O)[C@H](C)NC(=O)[C@H](CC(C)C)NC(=O)[C@H](CCC(N)=O)NC(=O)[C@H](CCCCN)NC(=O)[C@H](CCCNC(=N)N)NC(=O)[C@H](CC(C)C)NC(=O)[C@H](CCCNC(=N)N)NC(=O)[C@@H](NC(=O)[C@H](Cc1ccc(O)cc1)NC(=O)[C@H](CCC(N)=O)NC(=O)[C@H](CC(=O)O)NC(=O)[C@@H](NC(=O)[C@H](Cc1ccccc1)NC(=O)[C@@H](NC(=O)[C@H](C)NC(=O)[C@H](CC(=O)O)NC(=O)[C@H](CO)NC(=O)[C@@H](N)Cc1c[nH]cn1)C(C)C)[C@@H](C)O)[C@@H](C)O)[C@@H](C)O)C(=O)N[C@@H](CCCCN)C(=O)N[C@@H](CC(N)=O)C(=O)N[C@@H](CCCCN)C(=O)N[C@@H](CCCNC(=N)N)C(=O)N[C@@H](Cc1ccc(O)cc1)C(=O)O [Peptide R3P76] | +0.047 | 100 |  |  | > 150 | 
Helodermin |  |  |  |  |  | ~100
